“And” between values parts separate entries of the source, which are not always exact repeats. Identical values can stand only once. Toxic doses and inconclusive results are not listed. How the source made its calls: active means survival T/C of 150% or more; inactive means T/C below 125% in these data.
Tested on: BDF1 mice, B16 melanoma ip, median survival T/C
Assay: NCI In Vivo Anticancer Drug Screen. Data for tumor model B16 Melanoma (intraperitoneal) in B6D2F1 (BDF1) mice
Details: endpoint: median survival time, higher = longer survival
Procedure, shortened: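 Mice with transplantable tumors; drug vs vehicle groups; endpoint survival or tumor size; value = T/C.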

[1] = dose: 3.12 mg/kg/injection, schedule: Q01DX009 (ip), vehicle: saline with Tween-80
[2] = dose: 6.25 mg/kg/injection, schedule: Q01DX009 (ip), vehicle: saline with Tween-80
[3] = dose: 12.5 mg/kg/injection, schedule: Q01DX009 (ip), vehicle: saline with Tween-80
[4] = dose: 25.0 mg/kg/injection, schedule: Q01DX009 (ip), vehicle: saline with Tween-80
[5] = dose: 100.0 mg/kg/injection, schedule: Q01DX009 (ip), vehicle: saline with Tween-80
[6] = dose: 200.0 mg/kg/injection, schedule: Q01DX009 (ip), vehicle: saline with Tween-80
[7] = dose: 400.0 mg/kg/injection, schedule: Q01DX009 (ip), vehicle: saline with Tween-80
[8] = dose: 100.0 mg/kg/injection, schedule: Q01DX009 (ip), vehicle: Klucel (hydroxypropylcellulose) (HPC)
[9] = dose: 200.0 mg/kg/injection, schedule: Q01DX009 (ip), vehicle: Klucel (hydroxypropylcellulose) (HPC)
[10] = dose: 400.0 mg/kg/injection, schedule: Q01DX009 (ip), vehicle: Klucel (hydroxypropylcellulose) (HPC)

Measured: T/C

CC(=O)OC(C)(C)/C=C/C(=O)[C@](C)(O)[C@H]1[C@H](O)C[C@@]2(C)[C@@H]3CC=C4[C@@H](C=C(O)C(=O)C4(C)C)[C@]3(C)C(=O)C[C@]12C
inactive: dose: 0.25 mg/kg/injection, schedule: Q01DX009 (ip), vehicle: saline with Tween-80 90 % of control | dose: 0.5 mg/kg/injection, schedule: Q01DX009 (ip), vehicle: saline with Tween-80 109 % of control | dose: 1.0 mg/kg/injection, schedule: Q01DX009 (ip), vehicle: saline with Tween-80 102 % of control | dose: 2.0 mg/kg/injection, schedule: Q01DX009 (ip), vehicle: saline with Tween-80 93 % of control | dose: 4.0 mg/kg/injection, schedule: Q01DX009 (ip), vehicle: saline with Tween-80 95 % of control

OCC1OC(n2cnc3c2NC=NC[C@H]3O)CC1O (stereo partly specified)
inactive: dose: 0.06 mg/kg/injection, schedule: Q01DX009 (ip), vehicle: saline 109 % of control | dose: 0.12 mg/kg/injection, schedule: Q01DX009 (ip), vehicle: saline 104 % of control | dose: 0.25 mg/kg/injection, schedule: Q01DX009 (ip), vehicle: saline 101 % of control and 103 % of control | dose: 0.5 mg/kg/injection, schedule: Q01DX009 (ip), vehicle: saline 102 % of control and 106 % of control | dose: 1.0 mg/kg/injection, schedule: Q01DX009 (ip), vehicle: saline 90 % of control and 98 % of control | dose: 2.0 mg/kg/injection, schedule: Q01DX009 (ip), vehicle: saline 86 % of control

CCc1ccc(C2=C(O)C(=O)C(c3ccc(CC)cc3)=C(O)C2=O)cc1
inactive: [1] 114 % of control | [2] 103 % of control | [3] 113 % of control and 119 % of control | [4] 112 % of control and 122 % of control

C=C(C)[C@@H]1CC[C@@H]2C(=CC[C@]3(C)C([C@H](C)CC/C=C(/C)C(=O)O)CC[C@@]23C)[C@@]1(C)CCC(=O)O (stereo partly specified)
inactive: dose: 22.5 mg/kg/injection, schedule: Q01DX009 (ip), vehicle: saline + alcohol 98 % of control | dose: 45.0 mg/kg/injection, schedule: Q01DX009 (ip), vehicle: saline + alcohol 98 % of control

O=S(=O)(Nc1ccc(O)cc1)c1ccccc1
inactive: [5] 97 % of control | [6] 93 % of control | [7] 90 % of control

O=C(CC(NC(=O)OCc1ccccc1)C(=O)O)OCc1ccccc1 (stereo unspecified)
inactive: [4] 93 % of control | dose: 50.0 mg/kg/injection, schedule: Q01DX009 (ip), vehicle: saline with Tween-80 104 % of control | [8] 102 % of control | [5] 102 % of control | [9] 106 % of control | [6] 87 % of control

CC1=NN(c2ccccc2)C(=O)C1CC1C(=O)N(c2ccccc2)N=C1C (stereo unspecified)
inactive: [5] 95 % of control | [6] 95 % of control | [7] 89 % of control

c1ccc(-c2nnc(-c3ccccn3)nn2)nc1
inactive: dose: 50.0 mg/kg/injection, schedule: Q01DX009 (ip), vehicle: Klucel (hydroxypropylcellulose) (HPC) 103 % of control | [8] 107 % of control | [9] 97 % of control | [10] 96 % of control

Cc1cccc(C)c1NC(=O)NC(C)C
inactive: [8] 87 % of control | [9] 115 % of control | [10] 118 % of control

COC1=C2CC(C)CC(OC)C(O)C(C)/C=C(\C)C(OC(N)=O)C(OC)/C=C\C=C(/C)C(=O)NC(=C(/C=N/N(C)C)C1=O)C2=O (stereo unspecified)
inactive: dose: 12.5 mg/kg/injection, schedule: Q01DX005 (ip), vehicle: other 101 % of control | dose: 25.0 mg/kg/injection, schedule: Q01DX005 (ip), vehicle: other 101 % of control | dose: 50.0 mg/kg/injection, schedule: Q01DX005 (ip), vehicle: other 101 % of control | dose: 100.0 mg/kg/injection, schedule: Q01DX005 (ip), vehicle: other 97 % of control | dose: 200.0 mg/kg/injection, schedule: Q01DX005 (ip), vehicle: other 96 % of control

Nc1nc(N)c2c(ccc3c2ccn3Cc2cccc([N+](=O)[O-])c2)n1
inactive: dose: 1.56 mg/kg/injection, schedule: Q01DX009 (ip), vehicle: saline with Tween-80 90 % of control | [1] 100 % of control | [2] 119 % of control

COC(=O)c1ccc(=O)c2nc3/c(=C/O)c(O)cc(=O)c3[nH]c12
inactive: dose: 0.01 mg/kg/injection, schedule: Q01DX009 (ip), vehicle: saline with Tween-80 102 % of control | dose: 0.01 mg/kg/injection, schedule: Q04DX003 (ip), vehicle: saline with Tween-80 91 % of control | dose: 0.02 mg/kg/injection, schedule: Q01DX009 (ip), vehicle: saline with Tween-80 90 % of control | dose: 0.02 mg/kg/injection, schedule: Q04DX003 (ip), vehicle: saline with Tween-80 102 % of control | dose: 0.04 mg/kg/injection, schedule: Q01DX009 (ip), vehicle: saline with Tween-80 95 % of control | dose: 0.04 mg/kg/injection, schedule: Q04DX003 (ip), vehicle: saline with Tween-80 106 % of control

CC(C)Cc1ccc(OC(=O)Nc2ccc(Cl)cc2)cc1
inactive: [2] 97 % of control | [3] 100 % of control | [4] 91 % of control and 98 % of control

CC1=C2CC3CCC(C)C2(CC1)C3(C)C (stereo unspecified)
inactive: dose: 25.0 mg/kg/injection, schedule: Q04DX003 (ip), vehicle: saline with Tween-80 105 % of control | dose: 50.0 mg/kg/injection, schedule: Q04DX003 (ip), vehicle: saline with Tween-80 100 % of control | dose: 100.0 mg/kg/injection, schedule: Q04DX003 (ip), vehicle: saline with Tween-80 91 % of control

— PubChem BioAssay AID192 (DTP/NCI, 2004)
